We go through 1 compound from patent US9255122B2, “Cholate and deoxycholate-based amphiphiles for membrane protein manipulation” (Wisconsin Alumni Research Foundation, priority 2013, dated 2016).

SMILES strings stand for the structures.

Data set [1] can be described thus: Critical micelle concentration (CMC) estimated with hydrophobic fluorescent dye diphenylhexatriene (DPH). Type of data set: physicochemical. An excerpt: The “Critical Micelle Concentration” (CMC) refers to the concentration of a detergent (e.g., an amphiphile as described herein) in an aqueous solution at which the detergent molecules self-assemble into micelles. Below the CMC, detergents are mostly monomeric; above the CMC, micelle concentration increases linearly with detergent concentration. The CMC is dependent upon many factors and is detergent-specific. The CMC of a detergent can be determined experimentally by measuring the solubilization of a water-insoluble dye or fluorophore while varying the concentration of detergent. A CMC may also be determined by measuring the diminution of the surface tension of an aqueous solution as a function of detergent concentration (CMCs determined by either method correlate with each other). The CMC is determined by extrapolating the plot of solubilization vs. concentration (or surface tension vs. concentration) in the two linear regions above and below the CMC. Where the two lines intersect is the CMC.
The Critical Micelle Concentrations (CMCs) of compounds of the invention can be determined by standard techniques known to those of skill in the art. For example, CMCs of CAO and DCAO can be determined by monitoring uptake of a fluorescent dye (e.g., a dye such as 1,6-diphenylhexatriene) with increasing detergent concentration, monitored by fluorescence spectroscopy.

In data set [2] the test system is T1, LHI-RC complex.
T1 construct: made in house; host or cells: Rhodobacter capsulatus U43[pUHTM86Bgl], intracytoplasmic membranes
T1 sequence (P11847 whole entry): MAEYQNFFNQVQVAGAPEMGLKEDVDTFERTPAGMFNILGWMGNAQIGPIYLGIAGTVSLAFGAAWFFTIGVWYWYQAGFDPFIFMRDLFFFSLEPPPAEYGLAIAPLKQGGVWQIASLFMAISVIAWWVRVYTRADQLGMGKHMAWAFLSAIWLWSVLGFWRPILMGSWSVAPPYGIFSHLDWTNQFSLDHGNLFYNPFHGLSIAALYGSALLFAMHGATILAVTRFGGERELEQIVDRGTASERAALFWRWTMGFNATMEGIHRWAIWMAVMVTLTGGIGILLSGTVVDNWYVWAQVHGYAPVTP
T1 sequence (P19057 whole entry, further chain): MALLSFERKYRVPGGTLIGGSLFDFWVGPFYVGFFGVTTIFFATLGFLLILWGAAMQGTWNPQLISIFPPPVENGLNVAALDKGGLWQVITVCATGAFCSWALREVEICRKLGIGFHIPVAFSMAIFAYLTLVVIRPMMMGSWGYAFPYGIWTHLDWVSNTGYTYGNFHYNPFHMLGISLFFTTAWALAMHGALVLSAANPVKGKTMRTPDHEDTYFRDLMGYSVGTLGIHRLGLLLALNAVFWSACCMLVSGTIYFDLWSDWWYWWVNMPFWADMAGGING
T1 sequence (P19056 whole entry, further chain): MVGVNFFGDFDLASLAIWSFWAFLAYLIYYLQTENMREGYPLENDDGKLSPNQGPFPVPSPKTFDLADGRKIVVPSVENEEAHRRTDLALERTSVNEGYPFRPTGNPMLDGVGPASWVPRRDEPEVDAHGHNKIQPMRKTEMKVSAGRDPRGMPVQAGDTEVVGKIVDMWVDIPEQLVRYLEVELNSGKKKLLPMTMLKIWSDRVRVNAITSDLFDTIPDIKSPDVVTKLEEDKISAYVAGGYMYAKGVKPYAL
T1 sequence (P02948 whole entry, further chain): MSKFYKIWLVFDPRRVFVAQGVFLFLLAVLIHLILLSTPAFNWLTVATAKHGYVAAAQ
T1 sequence (P02950 whole entry, further chain): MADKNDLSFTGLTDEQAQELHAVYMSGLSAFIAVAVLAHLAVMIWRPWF
The experiment in a line: Solubilization of LHI-RC complex from R. capsulatus intracytoplasmic membranes (pellet/supernatant absorbance spectra). More on the design: species or system Rhodobacter capsulatus. Conditions: 2×CMC for DPA-2, CAO, CAO-1; 10×CMC for other new agents; 50×CMC for DDM and LDAO; 32° C., 30 min. As for the experimental part: (§1) These two reagents were chosen as control agents for the assay. For the superassembly solubilization, the intracytoplasmic R. capsulatus membranes enriched in LHI-RC complex were treated with 10×CMC individual new agents except DPA-2; DPA-2 was tested at 2×CMC based on its high CMC value. On the other hand, conventional detergents (LDAO and DDM) were used at 50×CMC due to the small CMC value in terms of wt. %. The solubilized protein portion and insolubilized part containing cellular debris and insolubilized membranes were separated via ultracentrifugation and isolated as the supernatant and pellet, respectively. The absorption spectra of these two portions were taken to assess detergents efficacy on the protein solubilization and stabilization.
(§2) The solubilization and purification of the R. capsulatus superassembly were conducted according to the published protocol (Chae et al., ChemBioChem 2008, 9, 1706-1709). First, specialized photosynthetic membranes called intracytoplasmic membranes were obtained from an engineered strain of Rhodobacter (R.) capsulatus, U43[pUHTM86Bgl], lacking the light-harvesting complex II (LHII). The solubilization experiment began by thawing and homogenizing frozen aliquots of R. capsulatus membranes at room temperature. The solution was then incubated with mild agitation at 32° C. for 30 min. Subsequently, the solution was further incubated for 30 min after adding individual detergents (2×CMC for DPA-2, CAO and CAO-1, 10×CMC for DPA-1, […], DCAO and DCAO-2, 50×CMC for DDM and LDAO) into 1.0 mL solutions of R. capsulatus superassembly. The solution was then subjected to ultracentrifugation at 310,000 g at 4° C. for 30 min to remove membrane debris.
(§3) The spectra of solubilized supernatant and solubilized pellet were taken in a range from 650 nm to 950 nm after being homogenized. For the purification of the protein, detergent-solubilized samples were transferred into a new 1.7 mL microcentrifuge tube containing Ni-NTA resin (Qiagen, Inc.; Valencia, Calif.; pre-equilibriated and stored in an equal volume of buffer containing 10 mM Tris, pH 7.8, and 100 mM NaCl). Following one-hour incubation at 4° C. for protein binding, the resins were collected and washed twice with 0.5 mL of binding buffer (a pH 7.8 Tris solution containing DDM at 1×CMC). Purified protein solution were collected by eluting three times with 0.20 mL elution buffer solutions containing 1 M imidazole (otherwise, this buffer was identical to binding buffer; the pH of each solution was readjusted to pH=7.8) and diluted with 0.4 mL of the binding buffer to reach 1.0 mL solution. UV-Vis spectra of the superassembly purified in individual detergents were then taken to assess the stability of the protein.

Data set [3] deals with T1, LHI-RC complex. The experiment in a line: Integrity of detergent-solubilized and Ni-NTA-purified LHI-RC complexes by UV-Vis absorption spectra. More on the design: species or system Rhodobacter capsulatus. To be noted: purified protein eluted at 1×CMC detergent.
Text: The presence of various types of cofactors such as bacteriochlorophyll and carotenoids embedded in the complexes, thereby providing a well-featured UV-Vis absorption spectrum, facilitates the assessment of the protein integrity for a set of detergents via optical spectrophotometry. The native conformation of the protein is represented by a very strong peak at 875 nm in its absorption spectrum, while the intact RC but denatured LHI, or denatured LHI and RC, produce rather intense peaks at ˜800 nm and ˜760 nm, respectively.
as §1
For the purification, the detergent-solubilized protein samples were subjected to a metal affinity column chromatography and eluted with the elution buffer containing 1M imidazole and 1×CMC individual detergents. The UV-Visible spectra of the resulting protein samples were taken to investigate the integrity of detergent-purified LHI-RC complexes.
as §2, §3

The nature of data set [4]: Water solubility and hydrogel formation of amphiphiles. Type of data set: physicochemical. As for the experimental part:
The amphiphiles prepared, except LDAO and DCAO, are water-soluble at up to 10 wt. %. […] DCAO was initially soluble, at approximately 1.0 wt. %, but tends to form a hydrogel over time at concentrations of greater than about 0.3 wt. %. Critical micelle concentration (CMC) values were estimated by using a hydrophobic fluorescent dye, diphenyhexatriene (DPH) (see Laible et al., Biochemistry 2003, 42, 1718-1730).
The CMC values were determined for CAO-1 (˜7.2 mM; ˜0.38 wt. %) and DCAO-2 (˜1.1 mM; ˜0.056 wt. %), which are similar to those of their parent compounds, CAO and DCAO, respectively (see Table 2.1 above). […] All of these cholate and deoxycholate-based agents preserved the native conformation of the superassembly during protein solubilization and purification processes.

The test system of data set [5] is T1, LHI-RC complex. Description: Long-term stability of LHI-RC complexes, absorbance ratio A875/A680 over 20-day incubation at room temperature. Further details: species or system Rhodobacter capsulatus. To be noted: detergent at CMC+0.04 wt. %, room temperature. As for the experimental part: The favorable properties of CAO and DCAO in terms of membrane protein stabilization prompted further evaluation of these reagents' ability to stabilize protein superassemblies as a function of time. DDM-purified samples were diluted with solutions containing CAO or LDAO. […] Protein stability was monitored over time at room temperature by measuring absorbance ratios (A875/A680) (absorption at 680 nm arises from the oxidation of bacteriochlorophyll dissociated from LHI upon denaturation). […] Of note, DCAO was not evaluated in this long-term stability of the superassembly due to its high tendency to form a hydrogel at this high concentration.
R. capsulatus superassembly was purified in DDM according to the protocol described above. The DDM-purified sample was then diluted to the solutions containing individual detergents (CAO, CAO-1, DCAO, DCAO-2, DDM and LDAO). The dilution makes DDM concentration reached far below its CMC and the final individual detergent concentration at CMC+0.04 wt % or CMC+1.0 wt %. The spectra of individual detergents-solubilized LHI-RC complexes were taken in a range of 650 nm to 950 nm at regular intervals over 20 days during the incubation at room temperature. Protein integrity in each sample was assessed via changes in absorbance ratio (A875/A680) with time.
Similar criteria and protocols were used to judge the ability of amphiphiles to maintain solubilized and purified superassembly for extended periods. In this case, UV Vis-nearIR spectra were recorded at regular intervals. The degradation of the material could be monitored with the A875/A680 absorbance ratio, which decreased with time and sample integrity as the dominant 875 nm absorption of intact LHI disappeared and a 680 nm band appeared, indicating the presence of unbound, oxidized cofactors.

[6] abbreviates: estimated with DPH, Example 2, Table 2.1.

For `CC(CCC(=O)NCCC[N+](C)(C)[O-])C1CCC2C3CCC4CC(O)CCC4(C)C3CC(O)C12C` (centres unmarked) [DCAO], in data set [1], the “CMC fold lower than that of CHAPS or CHAPSO” value is listed as “approximately 8 fold”. In data set [1] (Example 3, Table 3-2), the “CMC” value is 1.0 mM and the “CMC (%)” value was 0.049%. In data set [1] (setting [6]), the “CMC” value is reported as approximately 1.3 mM and the “CMC (wt. %)” value was approximately 0.064 wt. %. Moreover, the “SY (%) Solubilization yield of LHI-RC complex from the membrane” value in the data set with LHI-RC complex [2] is reported as approximately 70%. For the same compound, the “native structure of LHI-RC complexes after solubilization and purification (in words)” value with LHI-RC complex [3] is reported as “fully retained as effectively as DDM”. In addition, the “hydrogel formation (in words)” value in data set [4] is “did not form a hydrogel”. For the same compound, the “concentration at which a hydrogel tends to form over time” value in data set [4] (in water) is “greater than 0.3 wt. %”. Also, the water solubility entry in data set [4] (water-soluble at up to the stated concentration) is listed as “approximately 1.0 wt. %”. In addition, in the data set on LHI-RC complex [5], the “long-term stability of superassembly (A875/A680), in words” value is “more stable than DDM-solubilized protein”.
